Legend:
Format in all cases: cell-based
[1] = tested on: Actinomyces viscosus; test: Extent of growth, growth curves in BHI; conditions: control = 1
Procedure: (§1) The extent of growth of the tested bacteria in response to selected compounds (Met-Pro, Phe-Glu) was investigated by setting up growth curves in a nutritionally rich medium (brain heart infusion broth (BHI), Oxoid), over 48 hours. Late exponential growth phase liquid cultures were prepared by transferring the respective bacterium from blood agar plates to BHI and overnight incubation at 37° C. in an anaerobic atmosphere for A. viscosus, V. parvula, F. nucleatum, P. gingivalis, P. intermedia, T. forsythia, A. naeslundii, and C. sputigena, and in a 5% CO2 environment for S. salivarius, S. sanguinis, S. mitis, A. actinomycetemcomitans, S. mutans, S. sobrinus and S. gordonii. Overnight cultures were transferred to BHI and adjusted to a concentration of 1×10^7 CFU/ml (colony forming units per ml) by measuring the optical density at 600 nm (OD600) (BioRad SmartSpec 3000). For each strain, 200 μl of the bacterial suspension was added to a 96-well plate containing 20 μl of the respective di-peptides. Final concentrations of the di-peptides were set to 5, 10, 20 and 25 μmol/ml. […] Plates were incubated as previously described.
(§2) For each combination of bacterium/dipeptide, and for each of their respective controls (i.e. the particular bacterium in the nutritionally rich medium with no dipeptide), the optical density was measured at 630 nm (OD630) at 0 h, 24 h and 48 h (Thermo Scientific Multiskan Ascent). Additionally, the OD630 for combinations of bacterium/dipeptide grown in a 5% CO2 environment were also measured every hour between 0 h and 9 h.
(§3) The experiment was carried out on three different days (thus providing 3 biological replicas) and on each day the experiment was carried out in quadruple (thus providing 4 technical replicas) for each combination of bacterium with dipeptide and for each control. For each day and for each combination, the average (mean) of the values obtained (as detailed above) for the four technical replicas was calculated to provide a single value for each combination on each day. The values shown in Tables 5 to 6, below, are the average (mean) of the three single values obtained for each combination of bacterium with dipeptide.

[2] = tested on: Veillonella parvula; test: Extent of growth, growth curves in BHI; conditions: control = 1
Procedure: as §1, §2, §3

[3] = tested on: Aggregatibacter actinomycetemcomitans; test: Extent of growth, growth curves in BHI; conditions: control = 1
Procedure: as §1, §2, §3

[4] = tested on: Tannerella forsythia; test: Extent of growth, growth curves in BHI; conditions: control = 1
Procedure: as §1, §2, §3

[5] = tested on: Prevotella intermedia; test: Extent of growth, growth curves in BHI; conditions: control = 1
Procedure: as §1, §2, §3

[6] = tested on: Porphyromonas gingivalis; test: Extent of growth, growth curves in BHI; conditions: control = 1
Procedure: as §1, §2, §3

[7] = tested on: Streptococcus mutans; test: Extent of growth, growth curves in BHI; conditions: control = 1
Procedure: as §1, §2, §3

[8] = tested on: Streptococcus sanguinis; test: Extent of growth, growth curves in BHI; conditions: control = 1
Procedure: as §1, §2, §3

[9] = tested on: Streptococcus salivarius; test: Extent of growth, growth curves in BHI; conditions: control = 1
Procedure: as §1, §2, §3

[10] = tested on: Actinomyces naeslundii; test: Extent of growth, growth curves in BHI; conditions: control = 1
Procedure: as §1, §2, §3

[11] = tested on: Streptococcus mitis; test: Extent of growth, growth curves in BHI; conditions: control = 1
Procedure: as §1, §2, §3

[12] = tested on: Fusobacterium nucleatum; test: Extent of growth, growth curves in BHI; conditions: control = 1
Procedure: as §1, §2, §3

[13] = tested on: Streptococcus gordonii; test: Extent of growth, growth curves in BHI; conditions: control = 1
Procedure: as §1, §2, §3

[14] = tested on: Streptococcus sobrinus; test: Extent of growth, growth curves in BHI; conditions: control = 1
Procedure: as §1, §2, §3

[15] = tested on: Capnocytophaga sputigena; test: Extent of growth, growth curves in BHI; conditions: control = 1
Procedure: as §1, §2, §3

[16] = tested on: beneficial oral bacteria and pathogenic oral bacteria; test: Extent of growth, whole panel: prebiotic effect; conditions: threshold value of 1.25
Text: Substrates that were able to increase the growth (or maximal growth density or extent of growth) of at least one of the above beneficial bacteria while not or only minimally increasing the growth (or maximal growth density) of the pathogenic bacteria are considered to be prebiotic compounds.
as §1, §2, §3
This value was selected in order to exclude low-stimulating metabolites and avoid false positive results.

## Phe-Glu
[1]; 5 μmol/ml
  extent of growth: maximal OD630 over 48 hr divided by maximal OD of control: 0.5112
[1]; 10 μmol/ml
  extent of growth: maximal OD630 over 48 hr divided by maximal OD of control: 0.3845
[1]; 20 μmol/ml
  extent of growth: maximal OD630 over 48 hr divided by maximal OD of control: 0.1598
[1]; 25 μmol/ml
  extent of growth: maximal OD630 over 48 hr divided by maximal OD of control: 0.1563
[2]; 5 μmol/ml
  extent of growth: maximal OD630 over 48 hr divided by maximal OD of control: 1.0286
[2]; 10 μmol/ml
  extent of growth: maximal OD630 over 48 hr divided by maximal OD of control: 1.0199
[2]; 20 μmol/ml
  extent of growth: maximal OD630 over 48 hr divided by maximal OD of control: 0.9533
[2]; 25 μmol/ml
  extent of growth: maximal OD630 over 48 hr divided by maximal OD of control: 1.0475
[3]; 5 μmol/ml
  extent of growth: maximal OD630 over 48 hr divided by maximal OD of control: 0.5643
[3]; 10 μmol/ml
  extent of growth: maximal OD630 over 48 hr divided by maximal OD of control: 0.3227
[3]; 20 μmol/ml
  extent of growth: maximal OD630 over 48 hr divided by maximal OD of control: 0.2201
[3]; 25 μmol/ml
  extent of growth: maximal OD630 over 48 hr divided by maximal OD of control: 0.2320
[4]; 5 μmol/ml
  extent of growth: maximal OD630 over 48 hr divided by maximal OD of control: 1.0118
[4]; 10 μmol/ml
  extent of growth: maximal OD630 over 48 hr divided by maximal OD of control: 0.7490
[4]; 20 μmol/ml
  extent of growth: maximal OD630 over 48 hr divided by maximal OD of control: 0.7707
[4]; 25 μmol/ml
  extent of growth: maximal OD630 over 48 hr divided by maximal OD of control: 0.8302
[5]; 5 μmol/ml
  extent of growth: maximal OD630 over 48 hr divided by maximal OD of control: 1.1149
[5]; 10 μmol/ml
  extent of growth: maximal OD630 over 48 hr divided by maximal OD of control: 0.2856
[5]; 20 μmol/ml
  extent of growth: maximal OD630 over 48 hr divided by maximal OD of control: 0.2094
[5]; 25 μmol/ml
  extent of growth: maximal OD630 over 48 hr divided by maximal OD of control: 0.2224
[6]; 5 μmol/ml
  extent of growth: maximal OD630 over 48 hr divided by maximal OD of control: 0.8526
[6]; 10 μmol/ml
  extent of growth: maximal OD630 over 48 hr divided by maximal OD of control: 0.9810
[6]; 20 μmol/ml
  extent of growth: maximal OD630 over 48 hr divided by maximal OD of control: 0.4181
[6]; 25 μmol/ml
  extent of growth: maximal OD630 over 48 hr divided by maximal OD of control: 0.4208
[7]; 5 μmol/ml
  extent of growth: maximal OD630 over 48 hr divided by maximal OD of control: 0.9703
[7]; 10 μmol/ml
  extent of growth: maximal OD630 over 48 hr divided by maximal OD of control: 0.9003
[7]; 20 μmol/ml
  extent of growth: maximal OD630 over 48 hr divided by maximal OD of control: 0.4212
[7]; 25 μmol/ml
  extent of growth: maximal OD630 over 48 hr divided by maximal OD of control: 0.2492
[8]; 5 μmol/ml
  extent of growth: maximal OD630 over 48 hr divided by maximal OD of control: 0.8140
[8]; 10 μmol/ml
  extent of growth: maximal OD630 over 48 hr divided by maximal OD of control: 0.5644
[8]; 20 μmol/ml
  extent of growth: maximal OD630 over 48 hr divided by maximal OD of control: 0.2451
[8]; 25 μmol/ml
  extent of growth: maximal OD630 over 48 hr divided by maximal OD of control: 0.2334
[9]; 5 μmol/ml
  extent of growth: maximal OD630 over 48 hr divided by maximal OD of control: 0.9916
[9]; 10 μmol/ml
  extent of growth: maximal OD630 over 48 hr divided by maximal OD of control: 0.8123
[9]; 20 μmol/ml
  extent of growth: maximal OD630 over 48 hr divided by maximal OD of control: 0.2953
[9]; 25 μmol/ml
  extent of growth: maximal OD630 over 48 hr divided by maximal OD of control: 0.2322
[10]; 5 μmol/ml
  extent of growth: maximal OD630 over 48 hr divided by maximal OD of control: 0.7791
[10]; 10 μmol/ml
  extent of growth: maximal OD630 over 48 hr divided by maximal OD of control: 0.4962
[10]; 20 μmol/ml
  extent of growth: maximal OD630 over 48 hr divided by maximal OD of control: 0.1648
[10]; 25 μmol/ml
  extent of growth: maximal OD630 over 48 hr divided by maximal OD of control: 0.1653
[11]; 5 μmol/ml
  extent of growth: maximal OD630 over 48 hr divided by maximal OD of control: 1.9957
[11]; 10 μmol/ml
  extent of growth: maximal OD630 over 48 hr divided by maximal OD of control: 2.0642
[11]; 20 μmol/ml
  extent of growth: maximal OD630 over 48 hr divided by maximal OD of control: 0.3250
[11]; 25 μmol/ml
  extent of growth: maximal OD630 over 48 hr divided by maximal OD of control: 0.4367
[12]; 5 μmol/ml
  extent of growth: maximal OD630 over 48 hr divided by maximal OD of control: 0.7990
[12]; 10 μmol/ml
  extent of growth: maximal OD630 over 48 hr divided by maximal OD of control: 0.8493
[12]; 20 μmol/ml
  extent of growth: maximal OD630 over 48 hr divided by maximal OD of control: 0.2311
[12]; 25 μmol/ml
  extent of growth: maximal OD630 over 48 hr divided by maximal OD of control: 0.2402
[13]; 5 μmol/ml
  extent of growth: maximal OD630 over 48 hr divided by maximal OD of control: 0.9682
[13]; 10 μmol/ml
  extent of growth: maximal OD630 over 48 hr divided by maximal OD of control: 0.8613
[13]; 20 μmol/ml
  extent of growth: maximal OD630 over 48 hr divided by maximal OD of control: 0.3992
[13]; 25 μmol/ml
  extent of growth: maximal OD630 over 48 hr divided by maximal OD of control: 0.2908
[14]; 5 μmol/ml
  extent of growth: maximal OD630 over 48 hr divided by maximal OD of control: 1.0790
[14]; 10 μmol/ml
  extent of growth: maximal OD630 over 48 hr divided by maximal OD of control: 0.9900
[14]; 20 μmol/ml
  extent of growth: maximal OD630 over 48 hr divided by maximal OD of control: 0.5832
[14]; 25 μmol/ml
  extent of growth: maximal OD630 over 48 hr divided by maximal OD of control: 0.4315
[15]; 5 μmol/ml
  extent of growth: maximal OD630 over 48 hr divided by maximal OD of control: 0.9921
[15]; 10 μmol/ml
  extent of growth: maximal OD630 over 48 hr divided by maximal OD of control: 0.9872
[15]; 20 μmol/ml
  extent of growth: maximal OD630 over 48 hr divided by maximal OD of control: 1.0801
[15]; 25 μmol/ml
  extent of growth: maximal OD630 over 48 hr divided by maximal OD of control: 1.1804
[16]; 5 μmol/ml
  prebiotic effects (extent of growth): exhibited prebiotic effects
[16]; 10 μmol/ml
  prebiotic effects (extent of growth): exhibited prebiotic effects
